For assay [1], the system named is NL5901 strain expressing α-synuclein in muscle cells. The experiment in a line: Parkinson's disease model: mobility of NL5901 strain. It counts as in vivo, C. elegans. The settings on record: 1 μg/ml. An excerpt: We have studied the anatomical location of sul-2 expression from an extrachromosomal array and in single-copy insertion transgenic strains. […] There is no detectable expression in the germline in any transgenic strains (FIG. 2n and FIG. 10, 11a-b). ASE neurons are responsible for the attractive response of Na+ and Cl−, among others. Defects in odour sensing affect longevity. Therefore, we tested the ability of sul-2 mutants to respond to Cl− or Na+ and found no differences compared to wild type animals (FIG. 11c-d). Furthermore, sul-2 mutation increases the longevity of daf-10(m79), a long-lived mutant defective in sensory cilia formation25 (FIG. 11e). […] Reduction of sul-2 improves aging associated diseases in C. elegans Aging is considered the main risk factor for the onset of neurodegenerative disorders like Parkinson, Huntington, or Alzheimer's diseases. These disorders are caused by the progressive decline of proteostasis, which results in protein aggregation that compromises cellular functions and finally causes cell death. Germline-deficient C. elegans delay the symptoms derived from the proteotoxicity of ectopically expressed human β-amyloid (βA). We tested if sul-2 mutations or STX64 treatment improves the symptoms of C. elegans models for neurodegenerative diseases.

The subject of assay [2] is aged mice. The experiment in a line: Object recognition test in aged mice. It counts as in vivo. As for the experimental part:
The first, object recognition, after training with identical objects, tests the ability to identify different objects exposed together with a familiar one. When this happens, the object discrimination index is positive and higher than 0.1. […] For this purpose, during training, the entry latency to the preferred site is established and the aversive stimulus is administered.

SMILES strings stand for the structures. “Also recorded” adds a separate entry of the source.

With `NS(=O)(=O)Oc1ccc2c3c(c(=O)oc2c1)CCCCC3` [STX64], the mobility with age result in assay [1] is on record as “reduce mobility with age at a slower rate; also recorded: significantly improved mobility; also recorded: protective effect”. Besides, the object recognition result in assay [2] (3-month treatment in 18 months old mice, FIG. 19B) was “is improved”; in assay [2] (3 months treatment in 15 months old mice, FIG. 16B), “is improved”; in assay [2] (6 months treatment in 15 months old mice, FIG. 17B) it was “is improved”. The “learning and memory, object recognition test” value in assay [2] (aged mice, vs vehicle-treated, FIG. 21, listed as STX) was “showed significantly both learning (STM) and ability to store information (memory); also recorded: significant improvement in both learning (STM) and ability to store information (memory)”.
